# Results from publication PMC4689404, “2-Benzazolyl-4-Piperazin-1-Ylsulfonylbenzenecarbohydroxamic Acids as Novel Selective Histone Deacetylase-6 Inhibitors with Antiproliferative Activity” (PLoS ONE, 2015).
# Experiments:
# [1] = tested on: HCC4017 cells; test: Annexin V apoptosis assay; format: cell-based, human; conditions: 18h, 40h, 64h
# Procedure: For cell cycle analysis, cells were washed with PBS, fixed in 70% ethanol for 2 h, washed with PBS and resuspended in staining solution (0.1% Triton X-100, 0.2 mg/ml DNAse-free RNAse A and […]) and incubated at 37C for 15 min. Histograms were acquired on a BD FACSCalibur flow cytometer at UT Southwestern’s core facility. Apoptosis was measured using a FITC Annexin V Apoptosis Detection Kit I (BD Pharmingen) according to manufacturer’s protocol after treating cells with compounds as indicated in Figure legends.
# [2] = tested on: CCRF-CEM; test: NCI 60 screen, five dose; format: cell-based; conditions: Homo sapiens, Leukemia, GI50 = molar concentration, read-out: Log10 GI50 (converted)
# [3] = tested on: TK-10; test: NCI 60 screen, five dose; format: cell-based; conditions: Homo sapiens, Renal Cancer, GI50 = molar concentration, read-out: Log10 GI50 (converted)
# [4] = tested on: A549/ATCC; test: NCI 60 screen, five dose; format: cell-based; conditions: Homo sapiens, Non-Small Cell Lung Cancer, GI50 = molar concentration, read-out: Log10 GI50 (converted)
# [5] = tested on: U251; test: NCI 60 screen, five dose; format: cell-based; conditions: Homo sapiens, U-251, CNS Cancer, GI50 = molar concentration, read-out: Log10 GI50 (converted)
# [6] = tested on: OVCAR-4; test: NCI 60 screen, five dose; format: cell-based; conditions: Homo sapiens, Ovarian Cancer, GI50 = molar concentration, read-out: Log10 GI50 (converted)
# [7] = tested on: Ovarian cancer cell lines; test: NCI 60 screen, five dose; format: cell-based, human; conditions: for GI50: Homo sapiens; for no. cell lines used for the assay/no inhibited by compound: figures in parenthesis
# [8] = tested on: DU-145; test: NCI 60 screen, five dose; format: cell-based; conditions: Homo sapiens, Prostate Cancer, GI50 = molar concentration, read-out: Log10 GI50 (converted)
# [9] = tested on: Prostate Cancer cell lines; test: NCI 60 screen, five dose; format: cell-based, human; conditions: for GI50: Homo sapiens; for no. cell lines used for the assay/no inhibited by compound: figures in parenthesis
# [10] = tested on: LOX IMVI; test: NCI 60 screen, five dose; format: cell-based; conditions: Homo sapiens, Melanoma, GI50 = molar concentration, read-out: Log10 GI50 (converted)
# [11] = tested on: MCF7; test: NCI 60 screen, five dose; format: cell-based; conditions: Homo sapiens, Breast Cancer, GI50 = molar concentration, read-out: Log10 GI50 (converted)
# [12] = tested on: MDA-MB-435; test: NCI 60 screen, five dose; format: cell-based; conditions: Homo sapiens, Melanoma, GI50 = molar concentration, read-out: Log10 GI50 (converted)
# [13] = tested on: OVCAR-5; test: NCI 60 screen, five dose; format: cell-based; conditions: Homo sapiens, Ovarian Cancer, GI50 = molar concentration, read-out: Log10 GI50 (converted)
# [14] = tested on: BT-549; test: NCI 60 screen, five dose; format: cell-based; conditions: Homo sapiens, Breast Cancer, GI50 = molar concentration, read-out: Log10 GI50 (converted)
# [15] = tested on: SK-MEL-2; test: NCI 60 screen, five dose; format: cell-based; conditions: Homo sapiens, Melanoma, GI50 = molar concentration, read-out: Log10 GI50 (converted)
# [16] = tested on: RPMI-8226; test: NCI 60 screen, five dose; format: cell-based; conditions: Homo sapiens, Leukemia, GI50 = molar concentration, read-out: Log10 GI50 (converted)
# [17] = tested on: HOP-92; test: NCI 60 screen, five dose; format: cell-based; conditions: Homo sapiens, Non-Small Cell Lung Cancer, GI50 = molar concentration, read-out: Log10 GI50 (converted)
# [18] = tested on: HCT-116; test: NCI 60 screen, five dose; format: cell-based; conditions: Homo sapiens, Colon Cancer, GI50 = molar concentration, read-out: Log10 GI50 (converted)
# [19] = tested on: SNB-19; test: NCI 60 screen, five dose; format: cell-based; conditions: Homo sapiens, CNS Cancer, GI50 = molar concentration, read-out: Log10 GI50 (converted)
# [20] = tested on: NCI-H460; test: NCI 60 screen, five dose; format: cell-based; conditions: Homo sapiens, Non-Small Cell Lung Cancer, GI50 = molar concentration, read-out: Log10 GI50 (converted)
# [21] = tested on: SK-MEL-28; test: NCI 60 screen, five dose; format: cell-based; conditions: Homo sapiens, Melanoma, GI50 = molar concentration, read-out: Log10 GI50 (converted)
# [22] = tested on: COLO 205; test: NCI 60 screen, five dose; format: cell-based; conditions: Homo sapiens, Colon Cancer, GI50 = molar concentration, read-out: Log10 GI50 (converted)
# [23] = tested on: EKVX; test: NCI 60 screen, five dose; format: cell-based; conditions: Homo sapiens, Non-Small Cell Lung Cancer, GI50 = molar concentration, read-out: Log10 GI50 (converted)
# [24] = tested on: 786-0; test: NCI 60 screen, five dose; format: cell-based; conditions: Homo sapiens, Renal Cancer, GI50 = molar concentration, read-out: Log10 GI50 (converted)
# [25] = tested on: PC-3; test: NCI 60 screen, five dose; format: cell-based; conditions: Homo sapiens, Prostate Cancer, GI50 = molar concentration, read-out: Log10 GI50 (converted)
# [26] = tested on: ACHN; test: NCI 60 screen, five dose; format: cell-based; conditions: Homo sapiens, Renal Cancer, GI50 = molar concentration, read-out: Log10 GI50 (converted)
# [27] = tested on: SN12C; test: NCI 60 screen, five dose; format: cell-based; conditions: Homo sapiens, Renal Cancer, GI50 = molar concentration, read-out: Log10 GI50 (converted)
# [28] = tested on: A498; test: NCI 60 screen, five dose; format: cell-based; conditions: Homo sapiens, Renal Cancer, GI50 = molar concentration, read-out: Log10 GI50 (converted)
# [29] = tested on: Non-Small Cell Lung cancer cell lines; test: NCI 60 screen, five dose; format: cell-based, human; conditions: NSCL cancer; for GI50: Homo sapiens; for no. cell lines used for the assay/no inhibited by compound: figures in parenthesis
# [30] = tested on: SK-MEL-5; test: NCI 60 screen, five dose; format: cell-based; conditions: Homo sapiens, Melanoma, GI50 = molar concentration, read-out: Log10 GI50 (converted)
# [31] = tested on: OVCAR-8; test: NCI 60 screen, five dose; format: cell-based; conditions: Homo sapiens, Ovarian Cancer, GI50 = molar concentration, read-out: Log10 GI50 (converted)
# [32] = tested on: Renal Cancer cell lines; test: NCI 60 screen, five dose; format: cell-based, human; conditions: for GI50: Homo sapiens; for no. cell lines used for the assay/no inhibited by compound: figures in parenthesis
# [33] = tested on: MALME-3M; test: NCI 60 screen, five dose; format: cell-based; conditions: Homo sapiens, Melanoma, GI50 = molar concentration, read-out: Log10 GI50 (converted)
# [34] = tested on: MDA-MB-231/ATCC; test: NCI 60 screen, five dose; format: cell-based; conditions: Homo sapiens, Breast Cancer, GI50 = molar concentration, read-out: Log10 GI50 (converted)
# [35] = tested on: UACC-257; test: NCI 60 screen, five dose; format: cell-based; conditions: Homo sapiens, Melanoma, GI50 = molar concentration, read-out: Log10 GI50 (converted)
# [36] = tested on: HCC-2998; test: NCI 60 screen, five dose; format: cell-based; conditions: Homo sapiens, Colon Cancer, GI50 = molar concentration, read-out: Log10 GI50 (converted)
# [37] = tested on: SF-539; test: NCI 60 screen, five dose; format: cell-based; conditions: Homo sapiens, CNS Cancer, GI50 = molar concentration, read-out: Log10 GI50 (converted)
# [38] = tested on: NCI/ADR-RES; test: NCI 60 screen, five dose; format: cell-based; conditions: Homo sapiens, Ovarian Cancer, GI50 = molar concentration, read-out: Log10 GI50 (converted)
# [39] = tested on: T-47D; test: NCI 60 screen, five dose; format: cell-based; conditions: Homo sapiens, T47D, Breast Cancer, GI50 = molar concentration, read-out: Log10 GI50 (converted)
# [40] = tested on: NCI-H226; test: NCI 60 screen, five dose; format: cell-based; conditions: Homo sapiens, Non-Small Cell Lung Cancer, GI50 = molar concentration, read-out: Log10 GI50 (converted)
# [41] = tested on: NCI-H522; test: NCI 60 screen, five dose; format: cell-based; conditions: Homo sapiens, Non-Small Cell Lung Cancer, GI50 = molar concentration, read-out: Log10 GI50 (converted)
# [42] = tested on: HT29; test: NCI 60 screen, five dose; format: cell-based; conditions: Homo sapiens, HT-29, Colon Cancer, GI50 = molar concentration, read-out: Log10 GI50 (converted)
# [43] = tested on: SR; test: NCI 60 screen, five dose; format: cell-based; conditions: Homo sapiens, Leukemia, GI50 = molar concentration, read-out: Log10 GI50 (converted)
smiles,measurement,setting,value
"Cn1c(N2CCN(S(=O)(=O)c3ccc(C(=O)NO)cc3)CC2)nc2ccccc21 [Compound 9b, 4-[4-(1-methylbenzimidazol-2-yl)piperazin-1-yl]sulfonylbenzenecarbohydroxamic acid]","Annexin V staining, percent of dead cells",[1],did not show any reproducible significant changes
"O=C(NO)c1ccc(S(=O)(=O)N2CCN(c3nc4ccccc4o3)CC2)cc1 [Compound 9c, 4-(4-Benzoxazol-2-yl-piperazin-1-sulfonyl)-N -hydroxy-benzamid]",GI50,[2],1.78 µM
same,GI50,[3],7.94 µM
same,GI50,[4],13.5 µM
same,GI50,[5],6.46 µM
same,GI50,[6],4.9 µM
same,GI50,[7],7.66 µM
same,no. cell lines used for the assay/no inhibited by compound,[7],2/5
same,GI50,[8],7.41 µM
same,GI50,[9],4.89 µM
same,no. cell lines used for the assay/no inhibited by compound,[9],2/2
same,GI50,[10],10.7 µM
same,GI50,[11],3.8 µM
same,GI50,[12],3.63 µM
same,GI50,[13],10.2 µM
same,GI50,[14],12 µM
same,GI50,[15],16.2 µM
same,GI50,[16],0.38 µM
same,GI50,[17],6.03 µM
same,GI50,[18],4.07 µM
same,GI50,[19],10 µM
same,GI50,[20],10.7 µM
same,GI50,[21],4.57 µM
same,GI50,[22],1.7 µM
same,GI50,[23],8.91 µM
same,GI50,[24],23.4 µM
same,GI50,[25],3.24 µM
same,GI50,[26],21.4 µM
same,GI50,[27],11.7 µM
same,GI50,[28],2.82 µM
same,GI50,[29],9.51 µM
same,no. cell lines used for the assay/no inhibited by compound,[29],3/9
same,GI50,[30],5.62 µM
same,GI50,[31],3.24 µM
same,GI50,[32],8.24 µM
same,no. cell lines used for the assay/no inhibited by compound,[32],3/8
same,GI50,[33],1.38 µM
same,GI50,[34],13.2 µM
same,GI50,[35],6.46 µM
same,GI50,[36],17.4 µM
same,"Annexin V staining, percent of dead cells",[1],did not show any reproducible significant changes
same,GI50,[37],3.72 µM
same,GI50,[38],21.9 µM
same,GI50,[39],5.75 µM
same,GI50,[40],20.9 µM
same,GI50,[41],6.03 µM
"O=C(NO)c1ccc(S(=O)(=O)N2CCN(c3nc4ccccc4s3)CC2)cc1 [Compound 9d, 4-(4-Benzothiazol-2-yl-piperazin-1-sulfonyl)-N -hydroxy-benzamid]",GI50,[2],1.82 µM
same,GI50,[3],3.63 µM
same,GI50,[42],5.62 µM
same,GI50,[4],3.63 µM
same,GI50,[43],1.12 µM
same,GI50,[5],2.75 µM
same,GI50,[6],3.8 µM
same,GI50,[7],4.01 µM
same,no. cell lines used for the assay/no inhibited by compound,[7],3/3
same,GI50,[8],3.02 µM
same,GI50,[9],2.48 µM
same,no. cell lines used for the assay/no inhibited by compound,[9],2/2
same,GI50,[10],2.51 µM
same,GI50,[11],15.8 µM
same,GI50,[12],1.86 µM
same,GI50,[13],7.76 µM
same,GI50,[14],2.4 µM
same,GI50,[15],6.31 µM
same,GI50,[16],1.38 µM
same,GI50,[17],2.57 µM
same,GI50,[18],1.7 µM
same,GI50,[19],5.37 µM
same,GI50,[20],5.13 µM
same,GI50,[21],1.58 µM
same,GI50,[22],3.02 µM
same,GI50,[23],4.37 µM
same,GI50,[24],9.12 µM
same,GI50,[25],2.04 µM
same,GI50,[26],4.57 µM
same,GI50,[27],10.5 µM
same,GI50,[28],1.82 µM
same,GI50,[29],3.77 µM
same,no. cell lines used for the assay/no inhibited by compound,[29],4/9
same,GI50,[30],3.98 µM
same,GI50,[31],1.7 µM
same,GI50,[32],3.94 µM
same,no. cell lines used for the assay/no inhibited by compound,[32],3/8
same,GI50,[33],2.57 µM
same,GI50,[34],5.01 µM
same,GI50,[35],3.55 µM
same,GI50,[36],2.14 µM
same,GI50,[37],2.34 µM
same,GI50,[38],6.61 µM
same,GI50,[39],3.89 µM
same,GI50,[40],10 µM
same,GI50,[41],2.29 µM
